This is an account of results in US7572786B2, “Substituted 1-piperidin-3-yl-4-piperidin-4-yl-piperazine derivatives and their use as neurokinin antagonists” (Janssen Pharmaceutica, N.V., priority 2002, dated 2009).

What all share (type): cell-based
In assay [1] the target is NK1 (Homo sapiens, UniProt P25103). Description: Signal transduction (ST), intracellular Ca++ (FLIPR), NK1 antagonism. The conditions noted are these: for IC50: read-out: pIC50 NK1 (converted). The method, then: (§1) This test evaluates in vitro functional NK1 antagonistic activity. For the measurements of intracellular Ca^++ concentrations the cells were grown on 96-well (black wall/transparent bottom) plates from Costar for 2 days until they reached confluence. The cells were loaded with 2 μM Fluo3 in DMEM containing 0.1% BSA and 2.5 mM probenecid for 1 h at 37° C. […] The cells were preincubated with a concentration range of antagonists for 20 min at RT and Ca^++-signals after addition of the agonists were measured in a Fluorescence Image Plate Reader (FLIPR from Molecular Devices, Crawley, England). The peak of the Ca^++-transient was considered as the relevant signal and the mean values of corresponding wells were analysed as described below.
(§2) The sigmoidal dose response curves were analysed by computerised curve-fitting, using the GraphPad Program. […] For antagonist responses the IC50-value was calculated using non-linear regression.

For assay [2], the target named is T1, NK2 (Homo sapiens, UniProt P21452).
T1 sequence (P21452 1-398): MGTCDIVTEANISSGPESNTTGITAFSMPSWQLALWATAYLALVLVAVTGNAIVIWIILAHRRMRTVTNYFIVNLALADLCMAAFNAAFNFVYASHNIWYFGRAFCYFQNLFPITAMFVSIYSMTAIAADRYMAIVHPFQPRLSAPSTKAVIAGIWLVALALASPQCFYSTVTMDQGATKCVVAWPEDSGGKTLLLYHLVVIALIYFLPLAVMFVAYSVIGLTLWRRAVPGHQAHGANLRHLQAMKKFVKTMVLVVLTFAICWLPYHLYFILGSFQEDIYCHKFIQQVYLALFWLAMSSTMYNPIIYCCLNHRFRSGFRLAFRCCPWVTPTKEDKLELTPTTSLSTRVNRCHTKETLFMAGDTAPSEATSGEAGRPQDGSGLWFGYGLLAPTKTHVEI
The assay can be described thus: Signal transduction (ST), intracellular Ca++ (FLIPR), NK2. The conditions noted are these: for IC50: read-out: pIC50 NK2 (converted). On the procedure: [The source words this procedure for another target and reports this target under the same test.] as §1, §2

Assay [3] concerns the target T2, NK3 (Homo sapiens, UniProt P29371).
T2 sequence (P29371 1-465): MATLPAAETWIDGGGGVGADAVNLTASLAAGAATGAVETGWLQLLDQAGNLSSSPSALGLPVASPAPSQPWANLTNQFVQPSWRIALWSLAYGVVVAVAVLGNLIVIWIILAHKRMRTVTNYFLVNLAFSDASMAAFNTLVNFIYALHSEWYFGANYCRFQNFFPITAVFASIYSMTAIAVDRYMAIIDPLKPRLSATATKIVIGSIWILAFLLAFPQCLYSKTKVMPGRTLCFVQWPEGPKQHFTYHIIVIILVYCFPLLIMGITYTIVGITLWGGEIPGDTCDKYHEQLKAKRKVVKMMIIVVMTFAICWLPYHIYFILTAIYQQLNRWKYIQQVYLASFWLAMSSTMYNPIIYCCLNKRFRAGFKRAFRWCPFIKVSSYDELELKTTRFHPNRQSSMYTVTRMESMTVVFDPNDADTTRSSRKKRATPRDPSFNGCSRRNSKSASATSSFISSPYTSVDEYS
Description: Signal transduction (ST), intracellular Ca++ (FLIPR), NK3. The note with it: for IC50: read-out: pIC50 NK3 (converted). The method, then: [The source words this procedure for another target and reports this target under the same test.] as §1, §2

Sequence of NK1 (P25103 whole entry): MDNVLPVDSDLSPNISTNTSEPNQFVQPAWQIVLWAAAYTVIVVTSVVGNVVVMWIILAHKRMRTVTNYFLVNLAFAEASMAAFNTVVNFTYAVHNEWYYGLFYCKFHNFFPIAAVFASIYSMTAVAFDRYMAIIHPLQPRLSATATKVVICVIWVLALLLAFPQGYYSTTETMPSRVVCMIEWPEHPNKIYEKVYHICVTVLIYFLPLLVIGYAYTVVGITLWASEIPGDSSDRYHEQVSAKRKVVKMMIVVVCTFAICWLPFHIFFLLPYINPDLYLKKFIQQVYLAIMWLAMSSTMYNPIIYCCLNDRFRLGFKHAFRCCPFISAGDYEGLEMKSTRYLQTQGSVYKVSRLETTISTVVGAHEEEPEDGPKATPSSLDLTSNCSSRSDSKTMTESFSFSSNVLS

Turning to `O=C(c1cc(C(F)(F)F)cc(C(F)(F)F)c1)N1CC[C@H](N2CCN(C3CCCN(S(=O)(=O)c4cccs4)C3)CC2)C[C@H]1Cc1ccccc1` (stereo partly drawn) [Compound 25], the “pIC50 NK1” value in assay [1] is 7.8. Besides, the “pIC50 NK2” value in assay [2] is recorded as 6.4. The “pIC50 NK3” value in assay [3] is given as 7.1.
As for `O=C(c1cc(C(F)(F)F)cc(C(F)(F)F)c1)N1CC[C@H](N2CCN(C3CCCN(c4cnccn4)C3)CC2)C[C@H]1Cc1ccccc1` (stereo partly drawn) [Compound 26], the figures for the IC50 in assay [1], in assay [2] and in assay [3] were 7.94 nM, 7940 nM and 794 nM, respectively.
The corresponding values for `O=C(c1cc(C(F)(F)F)cc(C(F)(F)F)c1)N1CC[C@H](N2CCN(C3CCCN(S(=O)(=O)c4ccccc4)C3)CC2)C[C@H]1Cc1ccccc1` (stereo partly drawn) [Compound 28] are 10 nM, 2000 nM and 158 nM.
The corresponding values for `O=C(c1cc(C(F)(F)F)cc(C(F)(F)F)c1)N1CC[C@H](N2CCN(C3CCCN(S(=O)(=O)c4ccsc4)C3)CC2)C[C@H]1Cc1ccccc1` (stereo partly drawn) [Compound 29] are 6.31 nM, 1260 nM and 316 nM.
The corresponding values for `Cc1ccccc1S(=O)(=O)N1CCCC(N2CCN([C@H]3CCN(C(=O)c4cc(C(F)(F)F)cc(C(F)(F)F)c4)[C@H](Cc4ccccc4)C3)CC2)C1` (stereo partly drawn) [Compound 30] are 15.8 nM, 631 nM and 631 nM.
Turning to `Cc1nc(S(=O)(=O)N2CCCC(N3CCN([C@H]4CCN(C(=O)c5cc(C(F)(F)F)cc(C(F)(F)F)c5)[C@H](Cc5ccccc5)C4)CC3)C2)cn1C` (stereo partly drawn) [Compound 32], the IC50 was 5.01 nM in assay [1], 631 nM in assay [2] and 100 nM in assay [3].
For `O=C(c1cc(C(F)(F)F)cc(C(F)(F)F)c1)N1CC[C@H](N2CCN(C3CCCN(S(=O)(=O)c4ccc(Cl)s4)C3)CC2)C[C@H]1Cc1ccccc1` (stereo partly drawn) [Compound 36], the “pIC50 NK1” value in assay [1] stood at 7.5. Further, the “pIC50 NK2” value in assay [2] is given as 5.3. Besides, the “pIC50 NK3” value in assay [3] stood at 6.2.
As for `O=C(c1cc(C(F)(F)F)cc(C(F)(F)F)c1)N1CC[C@H](N2CCN(C3CCCN(S(=O)(=O)c4ccc(-c5cnco5)s4)C3)CC2)C[C@H]1Cc1ccccc1` (stereo partly drawn) [Compound 37], the IC50 in assay [1] is 12.6 nM; in assay [2], 2000 nM; in assay [3] it was 631 nM.
The corresponding values for `Cc1nc(C)c(S(=O)(=O)N2CCCC(N3CCN([C@H]4CCN(C(=O)c5cc(C(F)(F)F)cc(C(F)(F)F)c5)[C@H](Cc5ccccc5)C4)CC3)C2)s1` (stereo partly drawn) [Compound 38] are 6.31 nM, 200 nM and 251 nM.
Regarding `Cc1noc(C)c1S(=O)(=O)N1CCCC(N2CCN([C@H]3CCN(C(=O)c4cc(C(F)(F)F)cc(C(F)(F)F)c4)[C@H](Cc4ccccc4)C3)CC2)C1` (stereo partly drawn) [Compound 39], the IC50 in assay [1] was 6.31 nM; in assay [2], 631 nM; in assay [3], 501 nM.
`O=C(c1cc(C(F)(F)F)cc(C(F)(F)F)c1)N1CC[C@H](N2CCN(C3CCCN(S(=O)(=O)c4cc(Cl)sc4Cl)C3)CC2)C[C@H]1Cc1ccccc1` (stereo partly drawn) [Compound 40]: in assay [1], the “pIC50 NK1” value turned out to be 7.6. In addition, the “pIC50 NK2” value in assay [2] was 5.1. In assay [3], the “pIC50 NK3” value is recorded as 6.6.
On to `O=C(C1CCCC1)N1CCCC(N2CCN(C3CCN(C(=O)c4cc(C(F)(F)F)cc(C(F)(F)F)c4)C(Cc4ccccc4)C3)CC2)C1` (stereo not drawn) [Compound 41], for which the IC50 was 7.94 nM in assay [1], 3160 nM in assay [2] and 100 nM in assay [3].
In the same order, the values of `O=C(Cc1cccs1)N1CCCC(N2CCN([C@H]3CCN(C(=O)c4cc(C(F)(F)F)cc(C(F)(F)F)c4)[C@H](Cc4ccccc4)C3)CC2)C1` (stereo partly drawn) [Compound 43] are 10 nM, 2000 nM and 501 nM.
In the same order, the values of `O=C(c1cc(C(F)(F)F)cc(C(F)(F)F)c1)N1CC[C@H](N2CCN(C3CCCN(S(=O)(=O)c4ccc5nonc5c4)C3)CC2)C[C@H]1Cc1ccccc1` (stereo partly drawn) [Compound 45] are 20 nM, 1580 nM and 398 nM.
In the same order, the values of `O=C(c1cc(C(F)(F)F)cc(C(F)(F)F)c1)N1CC[C@H](N2CCN(C3CCCN(S(=O)(=O)c4c(Cl)nc5sccn45)C3)CC2)C[C@H]1Cc1ccccc1` (stereo partly drawn) [Compound 46] are 15.8 nM, 501 nM and 794 nM.
Consider `COc1ccccc1C(=O)N1CCCC(N2CCN([C@H]3CCN(C(=O)c4cc(C(F)(F)F)cc(C(F)(F)F)c4)[C@H](Cc4ccccc4)C3)CC2)C1` (stereo partly drawn) [Compound 47], for which the values for the IC50 in assay [1], in assay [2] and in assay [3] were 15.8 nM, 5010 nM and 501 nM, respectively.
In the case of `CC(C(=O)N1CCCC(N2CCN([C@H]3CCN(C(=O)c4cc(C(F)(F)F)cc(C(F)(F)F)c4)[C@H](Cc4ccccc4)C3)CC2)C1)c1ccccc1` (stereo partly drawn) [Compound 48], the IC50 in assay [1] is 31.6 nM; in assay [2], 1000 nM; in assay [3], 631 nM.
The corresponding values for `O=C(c1cc(C(F)(F)F)cc(C(F)(F)F)c1)N1CCC(N2CCN(C3CCCN(S(=O)(=O)Cc4ccccc4)C3)CC2)CC1Cc1ccccc1` (stereo not drawn) [Compound 49] are 15.8 nM, 631 nM and 316 nM.
`O=C(c1cc(C(F)(F)F)cc(C(F)(F)F)c1)N1CC[C@H](N2CCN(C3CCCN(S(=O)(=O)c4ccccc4C(F)(F)F)C3)CC2)C[C@H]1Cc1ccccc1` (stereo partly drawn) [Compound 50]: the IC50 in assay [1] is 100 nM; in assay [2] it was 6310 nM; in assay [3] it was 7940 nM.
With `CC(C)(C)OC(=O)N1CCC[C@@H]1C(=O)N1CCCC(N2CCN([C@H]3CCN(C(=O)c4cc(C(F)(F)F)cc(C(F)(F)F)c4)[C@H](Cc4ccccc4)C3)CC2)C1` (stereo partly drawn) [Compound 53], the “pIC50 NK1” value in assay [1] is 8.3. In assay [2], the “pIC50 NK2” value turned out to be 5.7. Further, in assay [3], the “pIC50 NK3” value is listed as 7.3.
For the molecule `CC(C)(C)OC(=O)N1CCCC1C(=O)N1CCCC(N2CCN(C3CCN(C(=O)c4cc(C(F)(F)F)cc(C(F)(F)F)c4)C(Cc4ccccc4)C3)CC2)C1` (stereo not drawn) [Compound 54], the IC50 in assay [1] was 5.01 nM; in assay [2] it was 2000 nM; in assay [3], 251 nM.
The corresponding values for `O=C(C(O)c1ccccc1)N1CCCC(N2CCN([C@H]3CCN(C(=O)c4cc(C(F)(F)F)cc(C(F)(F)F)c4)[C@H](Cc4ccccc4)C3)CC2)C1` (stereo partly drawn) [Compound 56] are 7.94 nM, 1000 nM and 2000 nM.
In the same order, the values of `N#Cc1cccc(C(=O)N2CCCC(N3CCN([C@H]4CCN(C(=O)c5cc(C(F)(F)F)cc(C(F)(F)F)c5)[C@H](Cc5ccccc5)C4)CC3)C2)c1` (stereo partly drawn) [Compound 57] are 12.6 nM, 3160 nM and 794 nM.
The corresponding values for `O=C(c1cc(C(F)(F)F)cc(C(F)(F)F)c1)N1CCC(N2CCN(C3CCCN(S(=O)(=O)c4cccs4)C3)CC2)CC1Cc1ccccc1` (stereo not drawn) [Compound 59] are 15.8 nM, 3160 nM and 2000 nM.
On to `O=C(c1cc(C(F)(F)F)cc(C(F)(F)F)c1)N1CC[C@H](N2CCN(C3CCCN(C(=O)C4(O)CC4)C3)CC2)C[C@H]1Cc1ccccc1` (stereo partly drawn) [Compound 61], for which the IC50 in assay [1] was 7.94 nM; in assay [2] it was 3160 nM; in assay [3], 6310 nM.
Turning to `N#Cc1ccc(C(=O)N2CCCC(N3CCN([C@H]4CCN(C(=O)c5cc(C(F)(F)F)cc(C(F)(F)F)c5)[C@H](Cc5ccccc5)C4)CC3)C2)cc1` (stereo partly drawn) [Compound 62], the IC50 was 10 nM in assay [1], 3980 nM in assay [2] and 3160 nM in assay [3].
As to `Cn1cnc(C(=O)N2CCCC(N3CCN([C@H]4CCN(C(=O)c5cc(C(F)(F)F)cc(C(F)(F)F)c5)[C@H](Cc5ccccc5)C4)CC3)C2)c1` (stereo partly drawn) [Compound 63], the IC50 in assay [1] is 5.01 nM; in assay [2] it was 3160 nM; in assay [3] it was 6310 nM.
`O=C(c1c(Cl)cccc1Cl)N1CCCC(N2CCN([C@H]3CCN(C(=O)c4cc(C(F)(F)F)cc(C(F)(F)F)c4)[C@H](Cc4ccccc4)C3)CC2)C1` (stereo partly drawn) [Compound 64]: the results for the IC50 in assay [1], in assay [2] and in assay [3] were 12.6 nM, 6310 nM and 794 nM, respectively.
